Source: patent publication US5498624A, “Selected pyrazolyl derivatives” (Monsanto Company, priority 1995, dated 1996)

How the values were obtained:
[1] = system: Pseudocercosporella herpotrichoides var. tritici; assay: Wheat True Eyespot Foliar Protectant Treatment (WES Prot); type: in vivo
Description: A) Pathogen/Inoculum Production--Follows as per Example 4.
B) Host Propagation--Wheat seedlings, cv. Hart, are grown to the third leaf stage in a commercial soil preparation, "Metro Mix 200", amended with 100 gm/ft^3 slow release "Osmocote 14-14-1438 . A sufficient number of seeds are planted per pot (5 cm in diameter) in order to insure the production of 5 vigorous seedlings per pot. The plants are maintained in a growth chamber set at 21° C., 80% RH with a 12 hour photoperiod. Light intensity is set at 300 me/m^2 /sec.
C) Test Compound Preparation
1) Experimental compounds--Follows as per Example 1.
2) Controls and Standards--The commercial fungicide, prochloraz, applied at 20 and 5 ppm, is used as the standard for wheat eyespot control. Control treatments are sprayed only with the formulation solution.
D) Compound Application--Wheat plants are sprayed at the three leaf stage. The solution is foliarly applied to the basal stem area of the wheat using a Devilbiss Model 152 hand sprayer. The treated wheat is allowed to air dry at room temperature before being returned to a growth chamber. The growth chamber is set at 15° C., 85% RH and a 12 hour photoperiod. Light intensity is maintained at 300 me/m^2 /sec.
E) Inoculation/Incubation - The treated wheat plants are inoculated 24 hours after chemical treatment. Inoculation is done by spraying a 3×10^5 spores/ml suspension at the basal stem area of each plant. Approximately 1 ml of spore suspension is applied to each plant. Following inoculation, the basal stem area of the plants are covered with a 2-3 cm thick layer of fine vermiculite. The vermiculite is watered lightly and the plants returned to the growth room. The inoculated plants remain in the growth chamber for 4 weeks after which time they are evaluated for disease control.
F) Evaluation--Treatments are evaluated four weeks after inoculation. Disease assessment is based on the percent girdling of the stem base caused by an eyespot lesion. Five plants are rated per replicate. Phytotoxicity and growth effects are also noted at this time.
G) Data--All replicate data is recorded as a percent disease value. Treatment means are calculated and percent disease control is determined by the formula: (control mean--treatment mean)*100/control mean. The inoculated control treatment mean is used for this calculation. The percent protection values for the compounds of the present invention are as set out in the Table below.

[2] = system: Pseudocercosporella herpotrichoides var. tritici; assay: Wheat True Eyespot In Vitro Assay (WES In Vitro); type: cell-based; design: key: 0: no inhibition of mycelial growth; 1: slight inhibition of mycelial growth; 2: moderate inhibition of mycelial growth; 3: strong inhibition of mycelial growth; conditions: 3 days at 19° C.
Description: A) Pathogen/Inoculum Production--A mycelial transfer of Pseudocercosporella herpotrichoides var. tritici is placed onto potato dextrose agar plates and allowed to grow for 40 days at 20 ° C., without light. Five agar discs are taken from the actively growing culture and are placed equidistant, mycelial side down, onto a water agar plate, and incubated at 10 ° C. with 10 hours of fluorescent light per day. After 5 days of incubation, sporulation on the transferred discs begins, and plates are flooded with 3-5 mls sterile deionized water. One-half ml aliquots are taken from the resulting spore suspension and placed on new water agar plates. Spores are spread across plates using a bent glass rod and incubated at 10 ° C. with 10 hour fluorescent light periods per day. In 5-10 days, a lawn of spores is produced and can be "harvested".
B) Compound Preparation and Test Execution--200 μl of 1/4 strength potato dextrose broth is placed in each well of a 96 well microtiter plate. […] The commercial standard used is prochloraz at equivalent rates.
C) Inoculation/Incubation--50 μl of a 1×10^6 spores/ml suspension harvested using the method above is added to each well. The 96 well plates are incubated for 3 days at 19° C. in the dark.
D) Evaluation--After incubation, each well is visually assessed for growth inhibition on the following 0-3 scale:
0=no inhibition of mycelial growth
1=slight inhibition of mycelial growth
2=moderate inhibition of mycelial growth
3=strong inhibition of mycelial growth

Succinate Dehydrogenase = assay: Enzyme Inhibition I-50 (WGB): Succinate Dehydrogenase Assay using Septoria nodorum mitochondria; type: biochemical; conditions: DCPIP reduction, read-out: WGB enzyme I-50
Description: Succinate Dehydrogenase Assay using Septoria nodorum mitochondria--Septorianodorum mycelia are prepared from spores via shake culture for 40-48 hours in 3% malt extract at room temperature. The mycelia are harvested by centrifugation and the pellets obtained are stored in the -80° C. freezer until use.
Mitochondria are isolated by a method adapted from White (Biochem. Biophys. Res. Commun. 44 (1971) 1212-19). Fifteen to twenty grams of frozen mycelia are resuspended in a 250 mL medium containing 0.25M sucrose, 5 mM tetrasodium ethylenediamine tetraacetic acid (Na4 EDTA), pH 7.0 containing 1.5 g/liter bovine serum albumin (BSA) and placed in a Bead Beater chamber (BioSpec Products, Bartlesville, Okla.). Zirconium oxide beads (0.5 mm) are added to finish filling the chamber. Four 30s beats separated by 2 rain temperature equilibration periods on ice are used to break the mycelia. The homogenate is centrifuged for 20 min at 3000×g and 4° C. to remove debris. The supernatant is recentrifuged at 20,000×g for 20 min at 4° C. The resulting pellet is resuspended in BSA-free sucrose/EDTA medium (40 mL) using a glass tissue homogenizer and teflon pestle and recentrifuged at 27,000×g for 15 min at 4° C. The pellet is resuspended in BSA-free sucrose/EDTA medium (~3 mL) and used for SDH assays.
The enzyme activity is measured at […] in a solution containing 50 mM potassium phosphate, pH7.2; 1 mM potassium cyanide; 45 μM 2,6-dichlorophenol indophenol (DCPIP) and 17 mM disodium succinate in a final volume of 1 mL with a Perkin-Elmer Lambda 7 ultraviolet-visible spectrophotometer. The test compounds are added as acetone solutions (final concentration of acetone less than or equal to 1%(v/v)). The mitochondrial preparations are used to initiate the reaction. All rates are corrected for succinate-independent dye reduction. Semilog plots of percentage inhibition versus test compound concentration are used to determine inhibition expressed as I50 (μM) which is the concentration required to inhabit the rate of DCPIP reduction by 50%. The commercial fungicide carboxin is used as a standard throughout [I50 (μM)=5.0±2.2; n=52].

[3] = 20 ppm foliar protectant, * = averaged value
[4] = 100 ppm foliar protectant, * = averaged value
[5] = 500 ppm foliar protectant, four weeks after inoculation

C[C@H]1CCC[C@H](c2ccccc2NC(=O)c2cn(C)nc2C(F)F)C1 (relative stereo) [Number 3, 1H-pyrazole-4-carboxamide, 3-(difluoromethyl)-1-methyl-N-[2-(3-methylcyclohexyl)phenyl]-, trans-]
WES Prot percent disease control [1, 3]: 01%
WES Prot percent disease control [1, 4]: 95%
WES In vitro growth inhibition 0-3 scale ([2]; 0.1 ppm): 1
WES In vitro growth inhibition 0-3 scale ([2]; 0.5 ppm): 2
WES In vitro growth inhibition 0-3 scale ([2]; 5.0 ppm): 3
IC50 (Succinate Dehydrogenase): 50 nM

Cn1cc(C(=O)Nc2ccccc2[C@H]2CC[C@H](C)CC2)c(C(F)(F)F)n1 [Number 4, 1H-pyrazole-4-carboxamide, 1-methyl-N-[2-(4-methylcyclohexyl)phenyl]-3-(trifluoromethyl)-, trans-]
WES Prot percent disease control [1, 3]: 54%
WES Prot percent disease control [1, 4]: 98%
WES Prot percent disease control [1, 5]: 100%
WES In vitro growth inhibition 0-3 scale ([2]; 0.1 ppm): 1
WES In vitro growth inhibition 0-3 scale ([2]; 0.5 ppm): 2
WES In vitro growth inhibition 0-3 scale ([2]; 5.0 ppm): 3
IC50 (Succinate Dehydrogenase): 29 nM

Cn1cc(C(=O)Nc2ccccc2[C@@H]2CCC[C@@H](C(F)(F)F)C2)c(C(F)F)n1 (relative stereo) [Number 6]
WES Prot percent disease control [1, 4]: 90%
WES Prot percent disease control [1, 5]: 100%
WES In vitro growth inhibition 0-3 scale ([2]; 0.1 ppm): 0
WES In vitro growth inhibition 0-3 scale ([2]; 0.5 ppm): 0
WES In vitro growth inhibition 0-3 scale ([2]; 5.0 ppm): 2
IC50 (Succinate Dehydrogenase): 520 nM

CC[C@H]1CC[C@@H](c2ccccc2NC(=O)c2cn(C)nc2C(F)F)CC1 [Number 1, 1H-pyrazole-4-carboxamide, 3-(difluoromethyl)-N-[2-(4-ethylcyclohexyl)phenyl]-1-methyl-, cis-]
WES Prot percent disease control [1, 3]: 29%
WES Prot percent disease control [1, 4]: 79%
WES Prot percent disease control [1, 5]: 100%
WES In vitro growth inhibition 0-3 scale ([2]; 0.1 ppm): 0
WES In vitro growth inhibition 0-3 scale ([2]; 0.5 ppm): 3
WES In vitro growth inhibition 0-3 scale ([2]; 5.0 ppm): 3
IC50 (Succinate Dehydrogenase): 15 nM

C[C@@H]1CCC[C@H](c2ccccc2NC(=O)c2cn(C)nc2C(F)F)C1 (relative stereo) [Number 2, 1H-pyrazole-4-carboxamide, 3-(difluoromethyl)-1-methyl-N-[2-(-3-methylcyclohexyl)phenyl]-, cis-]
WES Prot percent disease control [1, 3]: 12%
WES Prot percent disease control [1, 4]: 82%
WES In vitro growth inhibition 0-3 scale ([2]; 0.1 ppm): 1
WES In vitro growth inhibition 0-3 scale ([2]; 0.5 ppm): 2
WES In vitro growth inhibition 0-3 scale ([2]; 5.0 ppm): 3
IC50 (Succinate Dehydrogenase): 37 nM

Cn1cc(C(=O)Nc2ccccc2C2CCC(C)(C)CC2)c(C(F)F)n1 [Number 5, 1H-pyrazole-4-carboxamide, 3-(difluoromethyl)-N-(2-(4,4-dimethylcyclohexyl)phenyl]-1-methyl-]
WES Prot percent disease control [1, 3]: 59%
WES Prot percent disease control [1, 4]: 99%
WES In vitro growth inhibition 0-3 scale ([2]; 0.1 ppm): 1
WES In vitro growth inhibition 0-3 scale ([2]; 0.5 ppm): 3
WES In vitro growth inhibition 0-3 scale ([2]; 5.0 ppm): 3
IC50 (Succinate Dehydrogenase): 8 nM
